Experimental data from patent US20100021519A1, “Compositions and Methods for Treating or Preventing Diseases of Body Passageways” (priority 2006, published 2010).
Like-named read-outs stand apart in the source and are kept apart here.

Tests used:
[1] = Pilot in situ intra-tracheal infusion of THX-polymer formulation in rats immediately after termination; type: in vivo, rat; conditions: for THX tissue level, trachea: in situ infusion over 30 mins, 8 mg/kg, 200 μl, tissue harvested after 2 hours
Protocol: A pilot study of in situ intra-tracheal infusion was performed to estimate tracheal and lung tissue levels after in situ intra-tracheal infusion of THX-polymer formulation.
Method: Two rats (immediately after termination) were intra-tracheally infused over 30 mins with a THX-polymer formulation. The dose was 8 mg/kg and volume was 200 μl. After infusion these were wrapped for 2 hours in a warm heating pad. Tracheo-bronchial and lung tissue were harvested after wiping the lumen area of the tracheo-bronchial lumen with a tissue and spatula (to take off any adsorbed drug) at the end of 2 hours. Samples were frozen at −80 C until processed and analyzed by LC-MS. Sample extraction was conducted at AraVasc Inc. The processed samples were analyzed at Alta Analytical laboratories by LC-MS.

[2] = for THX level, plasma / THX tissue level, lung: rat; for THX level, plasma: intratracheal 3 × 4 mg/kg; for THX tissue level, lung: intratracheal THX-polymer formulation 3 × 4 mg/kg, LC-MS
Method: A screening formulation of thalidomide (THX) and polymer was used for the studies and the rat was chosen a preclinical model.
A pilot pharmacokinetic (PK) study was performed to estimate tracheo-bronchial and lung tissue levels after intra-tracheal application of THX-polymer formulation.
Method: A 10 mg/ml THX-polymer formulation was delivered (to anesthetized rats) at a dose of 4 mg/Kg at a volume of 100 μl dosed 3 times in 4 rats at 30 min intervals. The animals were anesthetized while dosing. […] Blood, tracheo-bronchial and lung tissue was sampled at 20 and 40 min past the third dose. Samples were frozen until processed for LC-MS analysis. […] Only the plasma and lung tissue were analyzed by LC-MS.
Method: A preliminary screening LCMS method was developed for quantitating THX in tissues and plasma. […] The equipment used was a SCIEX PE 3000.
Tissue and Plasma Extraction: The tissue was ground (glass-glass homogenizer) and extracted with 70:30 0.1% formic acid in acetonitrile and 0.1% formic acid in water at a 1:3 ratio of tissue to solvent. Plasma is extracted with the same solvent as the tissue at a 1:2 ratio of plasma to solvent. The supernatant extract was subject to LCMS analysis.

[3] = tested on: liver and lung cancer; conditions: preliminary reports, cited from earlier work
[4] = rats, intra-tracheal THX-polymer formulation, 12 mg/kg dose (100 μl dosed 3 times)
[5] = clinical trials in liver and lung cancer

## O=C1CCC(N2C(=O)c3ccccc3C2=O)C(=O)N1 (racemic) [THX, 2-(2,6-dioxo-3-piperidinyl)-1H-isoindole-1,3(2H)-dione]
[1]; Rat 1
  THX tissue level, trachea: 211.21 μg/100 mg
[1]; Rat 2
  THX tissue level, trachea: 290.36 μg/100 mg
[1]; rats, in situ intra-tracheal infusion (0.5 hr), 8 mg/kg dose
  THX levels in tracheo-bronchial and lung tissue (in words): High levels
[2]; 100 μl, 20 mins post 3rd dose, unit of the table head
  THX level, plasma: 0.19 ng/mL
[2]; 100 μl, 40 mins post 3rd dose, unit of the table head
  THX level, plasma: 0.44 ng/mL
[2]; 20 mins post 3rd dose, unit of the text
  THX level, plasma: 190 ng/mL
[2]; 40 mins post 3rd dose, unit of the text
  THX level, plasma: 440 ng/mL
[2]; 100 μl, 20 mins post 3rd dose
  THX tissue level, lung: 21.80 μg/100 mg
[2]; 100 μl, 40 mins post 3rd dose
  THX tissue level, lung: 16.81 μg/100 mg
[2]; rats, intra-tracheal THX-polymer formulation, 12 mg/kg dose
  Distribution/diffusion into the lung tissue and vasculature (in words): good distribution/diffusion into the lung tissue and vasculature
[2]; [4]
  THX levels in lung tissue (in words): High levels
  THX levels in plasma (in words): low levels
[3]; [5]
  Disease control rates: 8%-57%
  Response rates: 4%-10%
[3]
  Toxicity in clinical trials (in words): associated with systemic toxicities
